Source: patent US20140051696A1, “THERAPIES FOR TREATING CANCER” (GILEAD CALISTOGA LLC, priority 2012, published 2014)
“Also recorded” adds a separate entry of the source. Where two headings read alike, the source gives them in different places. Blank lines part the entries; values can stand above or below the compound they belong to.

Experiments:
[1] = system: AKT phosphorylation (S473) in Ramos cells; test: Immunoblot phospho-Akt in Ramos cells after anti-IgM BCR stimulation; type: cell-based, human; conditions: 1 uM each, IgM mediated BCR stimulation
Method: (§1) 5×10^6 Ramos (a Burkitt's cell line with intact BCR) were plated and treated with 1 uM of Compound A, 1 uM of Compound B, alone or in combination for 25 hours. Twenty μg Goat F(ab′)2 anti-human IgM (Invitrogen) was added to stimulate the BCR for 30 minutes. Protein were isolated and analyzed using immune-blotting with phospho-Akt (S473), phospho-Erk (T202/Y204), and phospho-S6.

[2] = Safety and tolerability in healthy human subjects; conditions: for tolerability: over the dose range evaluated, healthy subjects
Description: The endpoints evaluated include AEs, physical examination and clinical laboratory test findings, 12-lead ECG abnormalities and interval measurements, and vitals signs measurements.
Safety data for each cohort was reviewed after the 10-day observation period following each 4 day treatment period. Subsequent treatments in each cohort were only initiated following post dose safety assessments.

[3] = Plasma pharmacokinetics in healthy human subjects, alone or in combination; conditions: for AUC / Cmax: human, Mean (% CV); for AUC: AUCtau
Method: On Day 1, PK samples were collected at pre-dose, 2, 4, 8, and 12 hours post dose. On Day 4, samples were collected relative to the AM dose of study drug(s) at the following time points: pre-dose, 1, 2, 2.5, 3, 4, 6, 8, 10, 12, 18, 24, 36, and 48 hours post dose. Trough PK samples were collected on Day 3 prior to dosing.

[4] = system: WSU-FSCCL resistant cells; test: AlamarBlue growth inhibition, WSU-FSCCL resistant cells; type: cell-based, human; conditions: 72 hr
Method: The WSU-FSCCL parental cells were, initially, responsive to treatment of Compound A (FIG. 10A). […] Such cells were cultured and referred to as WSU-FSCCL resistant cells. This reflects a commonly observed clinical situation that patients become resistance or no longer respond to the existing treatment. Both the parental and the resistant cells of WSU-FSCCL were used in this study. […] The […] cells were added with the compounds in the serial dilution and incubated at 37° C. for 72 hr, followed by the addition of 12.5 μL AlamarBlue (Invitrogen #DAL1100). Plates were then incubated at 37° C. for 4 hours. The change of color from uptake of the stains in the living cells was measured for absorbance. Fluorescence Ex530, Em590, Cutoff570 on Spectramax M5 (Molecular Dynamics) were determined.

CCL2, CCL3, and CCL4 = test: Chemokine release ELISA, CLL patient samples in conditioned media; type: cell-based, human; conditions: patient samples cultured in conditioned media; alone and in combination
Method: (§3) In this Example, CLL patient samples were assessed for growth inhibition, chemokine release, and pathway activation status using a tetrazolium-based MTS assay, ELISA, and flow cytometry, respectively. Peripheral blood mononuclear cells (PBMCs) were isolated from primary patient samples using a Ficoll-Paque gradient. […] 5×10^5 primary cells were cultured in triplicate in HS-5 stromal cell conditioned media and growth inhibition was determined after 72 hours.

WSU-FSCCL parental cells = test: AlamarBlue growth inhibition, WSU-FSCCL parental cells; type: cell-based, human; conditions: initially, 72 hr
Method: The WSU-FSCCL parental cells were, initially, responsive to treatment of Compound A (FIG. 10A). […] Such cells were cultured and referred to as WSU-FSCCL resistant cells. This reflects a commonly observed clinical situation that patients become resistance or no longer respond to the existing treatment. Both the parental and the resistant cells of WSU-FSCCL were used in this study.
A 7× serial dilution of Compound A and Compound C from a stock of 10 mM (DMSO) was prepared using RPMI+10% FBS (270 μM). The WS-FSCCL cells were added with the compounds in the serial dilution and incubated at 37° C. for 72 hr, followed by the addition of 12.5 μL AlamarBlue (Invitrogen #DAL1100). Plates were then incubated at 37° C. for 4 hours.
The change of color from uptake of the stains in the living cells was measured for absorbance. Fluorescence Ex530, Em590, Cutoff570 on Spectramax M5 (Molecular Dynamics) were determined. To calculate the 50% inhibition of growth (GI50), the reading from the samples were compared to the controls (100% or 0% absorption).

[5] = system: AKT phosphorylation (S473) in CLL cells; test: Flow cytometry phospho-Akt in CLL cells co-cultured with HS5 stromal cells; type: cell-based, human; conditions: CLL cells of 15 patients co-cultured with HS5 stromal cells
Description: (§2) Ficoll purified CLL cells obtained from 15 patients were co-cultured with HS5 stromal cells then treated with each compound alone or in combination. CLL cells were stained with anti-CD5-FITC and either anti-phospho-Akt S473 (Alexa Fluor 488), phospho-S6 or an […] control antibody (mouse IgG1-Alexa Fluor 488 conjugate, Cell Signaling) and analyzed by 2-color flow cytometry.

[6] = system: S6 phosphorylation in CLL cells; test: Flow cytometry phospho-S6 in CLL cells co-cultured with HS5 stromal cells; type: cell-based, human; conditions: CLL cells of 15 patients co-cultured with HS5 stromal cells
Description: as §2

[7] = system: ERK phosphorylation (T202/Y204) in Ramos cells; test: Immunoblot phospho-Erk in Ramos cells after anti-IgM BCR stimulation; type: cell-based, human; conditions: 1 uM each, IgM mediated BCR stimulation
Method: as §1

primary CLL cells = test: MTS cell viability assay of primary CLL cells in HS-5 conditioned media; conditions: Homo sapiens
Method: as §3
Peripheral blood (PB) or bone marrow (BM) was collected from 14 CLL patients with untreated, relapsed, or refractory diseases. Mononuclear cells were isolated using a Ficoll-Paque gradient and were plated in triplicate into 96-well containing HS-5 conditioned media plus equimolar concentrations of Compound A and Compound B (10 μM to 0.61 nM). After 72 hours, viability was determined by MTS assay (CellTiter 96, Promega).

recurrent CLL = conditions: cited from earlier work; for median progression-free survival (PFS): patients with recurrent CLL
[8] = Compound A analyte, Compound A 150 mg + Compound B 600 mg vs Compound A 150 mg
[9] = Compound A analyte, Compound A 100 + Compound B 200 or 600 mg vs Compound A 100 mg
[10] = plasma, oral, 100 mg, Compound A analyte, Compound A 100 mg BID alone, fed (N = 16)
[11] = plasma, oral, 150 mg, Compound A analyte, Compound A 150 mg BID alone, fed (N = 7)
[12] = plasma, oral, Compound A analyte, Compound A 150 mg + Compound B 600 mg BID, fed (N = 6)
[13] = plasma, oral, Compound A analyte, Compound A 100 + Compound B 200 or 600 mg BID, fed (N = 16)
[14] = Compound B analyte, Compound B 200 mg + Compound A 100 mg vs Compound B 200 mg
[15] = Compound B analyte, Compound B 600 mg + Compound A 100/150 mg vs Compound B 600 mg
[16] = in vivo, 200 mg, Compound B analyte, Compound B 200 mg BID alone, fed (N = 8)
[17] = in vivo, 600 mg, Compound B analyte, Compound B 600 mg BID alone, fed (N = 16)
[18] = in vivo, Compound B analyte, Compound B 200 mg + Compound A 100 mg BID, fed (N = 8)
[19] = in vivo, Compound B analyte, Compound B 600 mg + Compound A 100/150 mg BID, fed (N = 14)

Ctau, Mean (% CV) ([3]; Compound A analyte, Compound A 100 mg BID alone, fed (N = 16)): 127 (44) ng/ml | Ctau, Mean (% CV) ([3]; Compound A analyte, Compound A 150 mg + Compound B 600 mg BID, fed (N = 6)): 411 (29) ng/ml | AUCtau, % Geometric Least Squares Means Ratio (90% CI), Combination vs. Alone [3, 8]: 1.11 (1.00, 1.24) % | Cmax, % Geometric Least Squares Means Ratio (90% CI), Combination vs. Alone [3, 8]: 1.06 (0.93, 1.21) % | Ctau, % Geometric Least Squares Means Ratio (90% CI), Combination vs. Alone [3, 8]: 1.23 (1.03, 1.47) % | Ctau, Mean (% CV) ([3]; Compound A analyte, Compound A 150 mg BID alone, fed (N = 7)): 320 (43) ng/ml | Ctau, Mean (% CV) ([3]; Compound A analyte, Compound A 100 + Compound B 200 or 600 mg BID, fed (N = 16)): 170 (50) ng/ml | AUCtau, % Geometric Least Squares Means Ratio (90% CI), Combination vs. Alone [3, 9]: 1.17 (1.13, 1.22) % | Cmax, % Geometric Least Squares Means Ratio (90% CI), Combination vs. Alone [3, 9]: 1.13 (1.07, 1.20) % | Ctau, % Geometric Least Squares Means Ratio (90% CI), Combination vs. Alone [3, 9]: 1.33 (1.20, 1.48) % | exposure of Compound A, combination vs alone ([3]; healthy subjects): minor variations | AUC [3, 10]: 8070 ng·h/mL | Cmax [3, 10]: 1660 ng/mL | AUC [3, 11]: 13800 ng·h/mL | Cmax [3, 11]: 2680 ng/mL | AUC [3, 12]: 15800 ng·h/mL | AUC [3, 13]: 9510 ng·h/mL | Cmax [3, 12]: 2870 ng/mL | Cmax [3, 13]: 1880 ng/mL
Compound: CC[C@H](Nc1ncnc2[nH]cnc12)c1nc2cccc(F)c2c(=O)n1-c1ccccc1 [Compound A, (S)-2-(1-(9H-purin-6-ylamino)propyl)-5-fluoro-3-phenylquinazolin-4(3H)-one]
AKT phosphorylation in Ramos cells [1]: inhibited or decreased | adverse event leading to discontinuation of treatment ([2]; one individual, during Compound A 150 mg dosing): Grade 1 ALT/AST elevation | tolerability [2]: generally well-tolerated | cell viability / sensitivity of WSU-FSCCL resistant cells [4]: became resistant to the treatment | production of CCL2, CCL3, and CCL4 by CLL cells (CCL2, CCL3, and CCL4): reduced | response of WSU-FSCCL parental cells to treatment (WSU-FSCCL parental cells): responsive | AKT phosphorylation in CLL cells [5]: inhibited or decreased | S6 phosphorylation in CLL cells [6]: inhibited or decreased

Ctau, Mean (% CV) ([3]; Compound B analyte, Compound B 200 mg + Compound A 100 mg BID, fed (N = 8)): 380 (62) ng/ml | AUCtau, % Geometric Least Squares Means Ratio (90% CI), Combination vs. Alone [3, 14]: 1.64 (1.41, 1.91) % | Cmax, % Geometric Least Squares Means Ratio (90% CI), Combination vs. Alone [3, 14]: 1.50 (1.24, 1.80) % | Ctau, % Geometric Least Squares Means Ratio (90% CI), Combination vs. Alone [3, 14]: 1.96 (1.61, 2.38) % | Ctau, Mean (% CV) ([3]; Compound B analyte, Compound B 200 mg BID alone, fed (N = 8)): 201 (661) ng/ml | Ctau, Mean (% CV) ([3]; Compound B analyte, Compound B 600 mg + Compound A 100/150 mg BID, fed (N = 14)): 1120 (72) ng/ml | AUCtau, % Geometric Least Squares Means Ratio (90% CI), Combination vs. Alone [3, 15]: 1.51 (1.30, 1.75) % | Cmax, % Geometric Least Squares Means Ratio (90% CI), Combination vs. Alone [3, 15]: 1.38 (1.20, 1.59) % | Ctau, % Geometric Least Squares Means Ratio (90% CI), Combination vs. Alone [3, 15]: 1.74 (1.48, 2.03) % | Ctau, Mean (% CV) ([3]; Compound B analyte, Compound B 600 mg BID alone, fed (N = 16)): 832 (82) ng/ml | AUC [3, 16]: 4150 ng·h/mL | Cmax [3, 16]: 618 ng/mL | AUC [3, 17]: 12700 ng·h/mL | Cmax [3, 17]: 1570 ng/mL | AUC [3, 18]: 6750 ng·h/mL | AUC [3, 19]: 16000 ng·h/mL | Cmax [3, 18]: 915 ng/mL | Cmax [3, 19]: 1900 ng/mL
Compound: c1cn2cc(-c3ccc4cn[nH]c4c3)nc(Nc3ccc(N4CCOCC4)cc3)c2n1 [Compound B, 6-(1H-indazol-6-yl)-N-(4-morpholinophenyl)imidazo[1,2-a]pyrazin-8-amine]
AKT phosphorylation in Ramos cells [1]: inhibited or decreased | tolerability [2]: generally well-tolerated | ERK phosphorylation in Ramos cells [7]: inhibit or reduced; also recorded: near complete inhibition or reduction | production of CCL2, CCL3, and CCL4 by CLL cells (CCL2, CCL3, and CCL4): reduced | IC50 (primary CLL cells; 72 h, read-out: median cell viability IC50): 3.7 µM | IC50 (primary CLL cells; read-out: cell viability IC50 obtained in 7 samples (50%)): ≤ 2 µM | AKT phosphorylation in CLL cells [5]: inhibited or decreased | S6 phosphorylation in CLL cells [6]: inhibited or decreased

Compound: alemtuzumab
median progression-free survival (PFS) (recurrent CLL): 4.7 months

Compound: ofatumumab
median progression-free survival (PFS) (recurrent CLL): 5.8 months

Compound: rituximab
median PFS (recurrent CLL; addition of high-dose methylprednisone to rituximab): 12 months
